Source: PMC3967244 (Clinical cancer research : an official journal of the …, 2013)
Entries after “also recorded” stand apart in the source; their conditions may differ. Read-outs that look alike come from different tables or passages of the source. Marks after values point to notes of the source that are not given here.

Key:
[1] = test system: acetylated histone H3 in patient PBMCs; experiment: Histone acetylation in peripheral blood mononuclear cells; assay type: in vivo, human
[2] = test system: histone acetylation in PBMCs; settings: day 1, 8 and 15 schedule, four hours; cited from earlier work
[3] = test system: patients with solid tumors; experiment: Phase I toxicity evaluation and dose escalation; settings: four-hour infusion on days 1, 3 and 5 of a 21-day cycle
[4] = test system: radioactive iodine uptake in refractory thyroid cancer; experiment: Radiolabeled sodium iodide; assay type: in vivo, human; settings: six of eleven patients with thyroid cancer
[5] = test system: differentiated and anaplastic thyroid cancer cell lines; settings: in vitro, cited from earlier work
[6] = test system: ST segment and T wave changes; experiment: ECG evaluation, graded ST segment and T wave changes; assay type: in vivo, human
[7] = test system: RAI avidity of tumor tissue; settings: cited from earlier work
[8] = test system: peripheral T-cell lymphoma (PTCL); settings: two Phase II trials in PTCL; cited from earlier work
[9] = test system: cutaneous T-cell lymphoma (CTCL); settings: two Phase II trials, 167 patients with CTCL; cited from earlier work
[10] = Plasma pharmacokinetics by LC/MS
solid tumors = experiment: Efficacy evaluation, objective disease response by RECIST v.1; assay type: in vivo, human
[11] = test system: patients with solid tumors; settings: in vivo
[12] = 27 of 28 patients, days 1, 3, and 5 of cycle 1

C/C=C1\NC(=O)[C@H]2CSSCC/C=C/[C@H](CC(=O)N[C@H](C(C)C)C(=O)N2)OC(=O)[C@H](C(C)C)NC1=O [romidepsin, Romidepsin]
Median increase in histone acetylation over baseline ([1]; 4h time-point, 9.9 mg/m^2): 3 fold
Increase in histone acetylation in PBMCs ([1]; 4h time-point, dose of 3.3 mg/m^2 or higher): ≥ 2 fold
Accumulation in acetylation over the 5 days of treatment ([1]; days 1, 3, 5): no accumulation in acetylation
Patients with no measurable increase in AcH3 ([1]; dose level 1 or 2): Five of six
Apparent threshold dose for histone acetylation in PBMCs ([1]; fold-increase in acetylation over pre-dose levels by cohort): 3.3 mg/m^2
Median increase in histone acetylation in PBMCs [2]: 3 fold
Dose identified as tolerable [3]: 7 mg/m^2
RAI uptake on follow-up RAI scans [4]: did not detect meaningful increases; also recorded: None demonstrated significant uptake; also recorded: did not demonstrate a significant increase in RAI uptake
Expression of thyroglobulin and NIS ([5]; nontoxic doses for 48 – 72 hours): induced expression
Radioactive iodine uptake [5]: increased radioactive iodine uptake
Patients with Grade 2 ST and T wave changes ([6]; 24-hour timepoint, dose level 5 (7 mg/m^2) and onward): over half of patients
Grade 1 ST and T wave changes ([6]; by dose level): noted from the first dose level onward
Grade 2 ST and T wave changes ([6]; dose levels above 5 mg/m^2): observed frequently
Patients with increase in RAI avidity ([7]; patients scanned following romidepsin): 2 of 16
ORR [8]: 25–38%
Overall response rate (ORR) [9]: 34–35%
Dose dependence of CMAX and AUCLAST ([10]; 1 to 9 mg/m^2): linear pharmacokinetics
Inter-day patient variability (%CV) for AUCLAST [10, 12]: 2–59%
Inter-day patient variability (%CV) for CMAX [10, 12]: 5–68%
Clearance ([10]; all dose levels): rapid clearance
Plasma romidepsin concentration 14 hours after completing the infusion ([10]; most patients, lower limit of quantitation 2 ng/ml): below the lower limit of quantitation
RECIST-defined objective response (solid tumors; 28 patients with solid tumors, all dose levels): No RECIST-defined objective responses; also recorded: no patient met criteria for RECIST-defined objective response
Patients with stable disease (solid tumors; of 28 patients, minimum of six cycles (18 weeks)): nine
Range of duration of stable disease, thyroid cancer (solid tumors; six patients with thyroid cancer): 26–112 weeks
Patients requiring dose reduction ([11]; human): 7 of 9
Anorexia ([11]; human, 21 day): 4 # pts (%)
Grade 4 toxicities ([11]; human, 21 day): none in cycle 1
Hypocalcemia ([11]; human, 21 day): 5 (18%) # pts (%)
Nausea ([11]; human, 21 day): 3 # pts (%)
Recommended phase II dose (RP2D) ([11]; human, 21 day): 7 mg/m^2
Vomiting ([11]; human, 21 day): 2 # pts (%)
Vomiting ([11]; human, 21 days): 9 (32%) # pts (%)
Febrile neutropenia [11]: no episodes of febrile neutropenia
Grade 3 nausea and vomiting at dose level 4 [11]: not considered dose-limiting

O=C(CCCCCCC(=O)Nc1ccccc1)NO [vorinostat]
RAI in tumor tissue ([7]; one patient): increased
